Results taken from US5763464A, “Retroviral agents containing anthranilamide, substituted benzamide and other subunits, and methods of using same” (The United States of America as represented by the …, priority 1995, dated 1998).
Entries after “also recorded” stand apart in the source; their conditions may differ. Where two headings read alike, the source gives them in different places.

Tests used:
HIV-1 = details: cited from earlier work
[1] = test system: HIV-1 (CEM cells chronically infected with HIV-1); experiment: Anti-retroviral activity in CEM cells chronically infected with HIV-1, soluble formazan assay; format: cell-based; details: Human immunodeficiency virus 1, CCRF-CEM
Experimental: Using the soluble formazan assay described by Weislow et al. (J. Nat'l. Cancer Inst., 81, 577-586 (1989)), CEM cells chronically infected with HIV-1 were used to assay the anti-retroviral activity of test compounds described herein. The concentration of compound that inhibits 50% of viral activity (EC50; determined as described in Weislow et al. (1989), supra) and the inhibition constant (Ki, as defined in Example 7) for the compound were determined.

CEM cells = experiment: Toxicity (IC50) in CEM cells, soluble formazan assay
in vitro = details: human, cem cells
[2] = Toxicity (IC50) in CEM cells, soluble formazan assay; details: human, cem cells
α-1 acid glycoprotein = experiment: In vitro activity in the presence of α-1 acid glycoprotein
[3] = molecular target: T1, HIV-1 protease (wild-type, WT) (Human immunodeficiency virus type 1 group M subtype B, UniProt P04585); experiment: biochemical
T1 construct: purified HIV-1 protease (wild-type, WT)
Experimental: The inhibition constants (Ki) for the compounds of the above examples were determined using purified HIV-1 protease (wild-type, WT) (Tables I, II and III). Ki is an inhibition constant of a given compound as derived by enzyme kinetics. A low Ki represents a high affinity of the compound for the enzyme, i.e., tight binding or low dissociation. Inhibition of the cleavage was assayed using a fluorogenic substrate available from Molecular Probes, Inc., Eugene, Oreg., and described in Kageyama et al., Antimicrob. Agents. Chemother., 37, 272 (1993), and a fluorogenic substrate available from Bachem California, Torrance, Calif., and described in Kageyama et al. (1993), supra. Percent inhibition is the percentage inhibition of an enzyme's activity by a given compound at a given concentration.

[4] = comparison table, read-out: EC50
[5] = comparison table, literature values by footnote

## CC(C)[C@H](NC(=O)N(C)Cc1ccccn1)C(=O)N[C@@H](Cc1ccccc1)[C@H](O)[C@H](O)[C@H](Cc1ccccc1)NC(=O)[C@@H](NC(=O)N(C)Cc1ccccn1)C(C)C [A-77003, reference compound]
HIV-1; Example 13, literature values
  EC50: 200 nM
[1]; [4]
  EC50: 140 nM
CEM cells; Homo sapiens, CCRF-CEM
  IC50: > 10000 nM
In vitro
  selectivity ratio: > 71

## CC(C)C(NC(=O)OCc1ccccc1)C(=O)N[C@@H](Cc1ccccc1)[C@@H](O)[C@@H](O)[C@H](Cc1ccccc1)NC(=O)c1ccccc1NC(=O)OCc1ccccn1 (stereo partly shown) [DN-14]
[1]; Example 13, CEM cells
  EC50: 6.5 nM
[1]; comparison table
  EC50: 6 nM
CEM cells; Example 13
  toxicity (from IC50/EC50): not toxic
CEM cells; Example 13, unit inferred
  IC50: > 100000 nM
CEM cells; Homo sapiens, CCRF-CEM
  IC50: > 100000 nM
CEM cells; comparison table
  IC50: > 100000 nM
[2]
  selectivity ratio: > 16700
α-1 acid glycoprotein
  in vitro activity in presence of α-1 acid glycoprotein: not affected by the presence of α-1 acid glycoprotein; also recorded: unaffected in the presence of α-1 acid glycoprotein

## CC(C)(C)NC(=O)[C@@H]1CN(Cc2cccnc2)CCN1C[C@@H](O)C[C@@H](Cc1ccccc1)C(=O)N[C@H]1c2ccccc2C[C@H]1O [Indinavir]
HIV-1; [5]
  EC50: 50 nM

## CSC[C@H](NC(=O)COc1cccc2cnccc12)C(=O)N[C@@H](Cc1ccccc1)[C@H](O)C(=O)N1CSC[C@H]1C(=O)NC(C)(C)C [KNI-272, reference compound]
[1]; Example 13, CEM cells, read-out: EC50
  EC50: 4.2 nM
[1]; [4]
  EC50: 28 nM
CEM cells; Homo sapiens, CCRF-CEM
  IC50: > 100000 nM
In vitro
  selectivity ratio: > 3570

## O=C(N[C@@H](Cc1ccccc1)[C@H](O)[C@H](O)[C@H](Cc1ccccc1)NC(=O)O[C@H]1CCOC1)O[C@H]1CCOC1 [RS-205]
[1]; Table I
  EC50: 16000 nM
[3]
  Ki: 4.6 nM
CEM cells; Homo sapiens, CCRF-CEM
  IC50: > 150000 nM

## Cc1c(O)cccc1C(=O)N[C@@H](Cc1ccccc1)[C@@H](O)C[C@H](Cc1ccccc1)NC(=O)OC(C)(C)C [RS-208, (2S,3S,5S)-2-[N-[(3-hydroxy-2-methylphenyl)carbonyl]amino]-5-[N-(tert-butyloxycarbonyl)amino]-1,6-diphenyl-3-hydroxy hexane]
[1]; Table I, read-out: EC50
  EC50: 470 nM
[3]; Table I, unit inferred, read-out: Ki
  Ki: 0.213 nM
CEM cells; Homo sapiens, CCRF-CEM
  IC50: 23000 nM

## CC(C)c1nc(CN(C)C(=O)N[C@H](C(=O)N[C@@H](Cc2ccccc2)C[C@H](O)[C@H](Cc2ccccc2)NC(=O)OCc2cncs2)C(C)C)cs1 [Ritonavir]
HIV-1; Example 13, literature values
  EC50: 36 nM
HIV-1; [5]
  EC50: 36 nM

## CC(C)(C)NC(=O)[C@@H]1C[C@@H]2CCCC[C@@H]2CN1C[C@@H](O)[C@H](Cc1ccccc1)NC(=O)[C@H](CC(N)=O)NC(=O)c1ccc2ccccc2n1 [Sequinavir]
HIV-1; Example 13, literature values
  EC50: 10 nM
HIV-1; [5]
  EC50: 10 nM

## CC(C)CN(C[C@@H](O)[C@H](Cc1ccccc1)NC(=O)O[C@H]1CCOC1)S(=O)(=O)c1ccc(N)cc1 [VX-478]
HIV-1; comparison table, Kim et al., 1995, read-out: EC90 (EC50 column, footnote b)
  EC90: 40 nM
